# Measurements: patent US20120064121A1, “PYRIDINE COMPOUNDS FOR INFLAMMATION AND IMMUNE-RELATED USES” (SYNTA PHARMACEUTICALS CORP., priority 2008, published 2012)
# pIC50: −log10 of the molar value. Where a name gives a salt, the structure may show the parent alone.
# Test system: IL-2 production
# Experiment: Inhibition of IL-2 production in PHA-activated Jurkat cells (ELISA)
# Assay type: cell-based
# Conditions: Homo sapiens, Jurkat, 20 h, PHA 2.5 μg/mL, IL-2 ELISA
# Protocol: Jurkat cells were placed in a 96 well plate (0.5 million cells per well in 1% FBS medium) then a test compound of this invention was added at different concentrations. After 10 minutes, the cells were activated with PHA (final concentration 2.5 μg/mL) and incubated for 20 hours at 37° C. under CO2. The final volume was 200 μL. Following incubation, the cells were centrifuged and the supernatants collected and stored at −70° C. prior to assaying for IL-2 production. A commercial ELISA kit (IL-2 Eli-pair, Diaclone Research, Besancon, France) was used to detect production of IL-2, from which dose response curves were obtained. The IC50 value was calculated as the concentration at which 50% of maximum IL-2 production after stimulation was inhibited versus a non-stimulation control.
row,SMILES,pIC50
1,"Cc1ccc(-c2ccno2)cc1-c1ccc(NCc2c(F)cccc2F)cn1 [Compound 3, N-(2,6-difluorobenzyl)-6-(5-(isoxazol-5-yl)-2-methylphenyl)pyridin-3-amine]",7.32
2,"Fc1cccc(F)c1CNc1ccc(-c2cc(-c3nccs3)ccc2Cl)nc1 [Compound 4, 6-(2-chloro-5-(thiazol-2-yl)phenyl)-N-(2,6-difluorobenzyl)pyridin-3-amine]",7.72
3,"Fc1cccc(F)c1CNc1ccc(-c2cc(-c3ncco3)ccc2Cl)cn1 [Compound 5, 5-(2-chloro-5-(oxazol-2-yl)phenyl)-N-(2,6-difluorobenzyl)pyridin-2-amine]",7.77
4,"Cc1ccc(-c2cccnc2)cc1-c1ccc(NC(=O)c2c(F)cccc2F)nc1 [Compound 6, 2,6-difluoro-N-(5-(2-methyl-5-(pyridin-3-yl)phenyl)pyridin-2-yl)benzamide]",8.52
5,"Cc1ccc(-c2ncccn2)cc1-c1ccc(NC(=O)c2c(F)cccc2F)nc1 [Compound 7, 2,6-difluoro-N-(5-(2-methyl-5-(pyrimidin-2-yl)phenyl)pyridin-2-yl)benzamide]",7.92
6,"O=C(Nc1ccc(-c2cc(-c3cccnc3)ccc2Cl)cn1)c1c(F)cccc1F [Compound 18, N-(5-(2-chloro-5-(pyridin-3-yl)phenyl)pyridin-2-yl)-2,6-difluorobenzamide]",8.22

# Next, values leading:
row,pIC50,SMILES
1,7.96,"O=C(Nc1ccc(-c2cc(-c3nccs3)ccc2Cl)cn1)c1ccncc1F [Compound 8, N-(5-(2-chloro-5-(thiazol-2-yl)phenyl)pyridin-2-yl)-3-fluoroisonicotinamide]"
2,7.89,"O=C(Nc1ccc(-c2cc(-c3nccs3)ccc2Cl)cn1)c1ccccc1F [Compound 11, N-(5-(2-chloro-5-(thiazol-2-yl)phenyl)pyridin-2-yl)-2-fluorobenzamide]"
3,8.00,"O=C(Nc1ccc(-c2cc(-c3nccs3)ccc2Cl)cn1)c1c(F)cccc1Cl [Compound 12, 2-chloro-N-(5-(2-chloro-5-(thiazol-2-yl)phenyl)pyridin-2-yl)-6-fluorobenzamide]"
4,7.18,"O=C(Nc1ccc(-c2cc(-c3nccs3)ccc2Cl)cn1)c1c(F)cccc1C(F)(F)F [Compound 13, N-(5-(2-chloro-5-(thiazol-2-yl)phenyl)pyridin-2-yl)-2-fluoro-6-(trifluoromethyl)benzamide]"
5,7.15,"O=C(Nc1ccc(-c2cc(-c3nccs3)ccc2Cl)nc1)c1ccccc1C(F)(F)F [Compound 14, N-(6-(2-chloro-5-(thiazol-2-yl)phenyl)pyridin-3-yl)-2-(trifluoromethyl)benzamide]"
6,6.46,"Cc1cc[nH]c1C(=O)Nc1ccc(-c2cc(-c3nccs3)ccc2Cl)cn1 [Compound 15, N-(5-(2-chloro-5-(thiazol-2-yl)phenyl)pyridin-2-yl)-3-methyl-1H-pyrrole-2-carboxamide]"
7,7.04,"Cn1cncc1C(=O)Nc1ccc(-c2cc(-c3nccs3)ccc2Cl)cn1 [Compound 16, N-(5-(2-chloro-5-(thiazol-2-yl)phenyl)pyridin-2-yl)-1-methyl-1H-imidazole-5-carboxamide]"
8,7.09,"Cc1ncsc1C(=O)Nc1ccc(-c2cc(-c3nccs3)ccc2Cl)cn1 [Compound 17, N-(5-(2-chloro-5-(thiazol-2-yl)phenyl)pyridin-2-yl)-4-methylthiazole-5-carboxamide]"

# Same assay, conditions: PHA 2.5 μg/mL, 20 hours, IL-2 ELISA
row,pIC50,SMILES
1,7.25,"Fc1cccc(F)c1CNc1ccc(-c2cc(-c3nccs3)ccc2Cl)cn1 [Compound 1, 5-(2-chloro-5-(thiazol-2-yl)phenyl)-N-(2,6-difluorobenzyl)pyridin-2-amine]"
2,< 6.00,"Cc1ccc(-c2cccnc2)cc1-c1ccc(NC(=O)c2c(F)cccc2Cl)nc1 [Compound 9, 2-chloro-6-fluoro-N-(5-(2-methyl-5-(pyridin-3-yl)phenyl)pyridin-2-yl)benzamide]"

# Same assay, conditions: PHA 2.5 μg/mL, 20 hours, IL-2 ELISA, hydrochloride
row,pIC50,SMILES
1,7.68,"Fc1cccc(F)c1CNc1ccc(-c2cc(-c3nccs3)ccc2Cl)cn1 [Compound 2, 5-(2-chloro-5-(thiazol-2-yl)phenyl)-N-(2,6-difluorobenzyl)pyridin-2-amine hydrochloride]"
2,8.15,"Cc1ccc(-c2cccnc2)cc1-c1ccc(NC(=O)c2c(F)cccc2Cl)nc1 [Compound 10, 2-chloro-6-fluoro-N-(5-(2-methyl-5-(pyridin-3-yl)phenyl)pyridin-2-yl)benzamide hydrochloride]"
